From US20210268070A1, “Use of Immunomodulators to Control Infection and Stimulate Healing in Normal and Diabetic Wounds” (priority 2018, published 2021) come the findings set out here.

Experiment [1] deals with P. aeruginosa PA103. Put plainly: Wound model of infection with PA103 in normal (C57BL) mice. Type of experiment: in vivo. How it is done: (§1) The implant model of infection in C57B mice was used for 10^6 PA103 (FIG. 2A) or 10^6 USA300 MRSA (FIG. 2C). The wound model of infection was used for 10^6 PA103 in C57BL mice (FIG. 2B) or diabetic db/db mice (FIG. 2D). Infection was carried out at the time of surgery by adding bacteria directly to the surgical sites. Immunomodulators, namely, LPS (10 ng or 100 ng), fMLP (10 ng or 100 ng), CCL3 (1 μg) were added topically at the surgical sites at the time of surgery & infection. GM-CSF (10 μg/kg), tobramycin (Tob at 3.5 mg/kg), and vancomycin (40 mg/kg) were added systemically by i.p. injection 1 h before surgical implantation and infection. Infection levels were determined 24 h following infection (N>4 animals/group; NS=not significant, * p<0.01, ** p<0.001, ***p<0.0001 One-way ANOVA).
(§2) (15A) C57BL/6 mice received 40 mg/kg prophylaxis (Sys) vancomycin (Vanc) or 3.5 mg/kg tobramycin (Tobra) by i.p. injection. (15A) 1 h after antibiotic administration, 106 CFU of USA300 was added to implant after insertion into facia (Implant Model). (15B) 1 h after antibiotic administration, 10^6CFU of USA300 or 106CFU PA103 (Pa) were added full-thickness wounds in of C57BL/6 (Wound Model). Infection levels at implant surgical site (Tissue & Implant) or a distant site (Spleen), or wound tissues were assessed 24 h following infection. (N>4 animals/group, * p<0.01, ***p<0.0001, One-way ANOVA).
(§3) We assessed these immunomodulators for their ability to control wound and/or implant SS's in normal (C57BL/6) or diabetic (db/db) mice. We acknowledge that diabetic individuals are not as immunocompromised as other immunocompromised patient groups. […] All immunomodulators were added locally at the surgical sites at the time of infection, except GM-CSF (10 μg/kg) which was administered systemically by i.p. injection 1 h prior to surgery per its FDA-approved route of delivery. […] CCL3 and GM-CSF are also tested using the implant model of infection. Here, we tested CCL3 and GM-CSF in the wound model of infection in C57B mice.
Implant surgery and wound surgery and surgical site infection are performed according to the following method. On the day of surgery, all mice are anesthetized by an intraperitoneal injection of a ketamine/xylazine mixture (90 mg/kg ketamine+5 mg/kg xylazine for mice). The back of the animals is shaved using an electric shave and scrubbed with alcohol swabs 3 times, a topical antiseptic solution (Hibiclens; chlorhexidine gluconate) is applied to the skin. The surgical procedures are performed with sterile instruments, sterile surgical gloves, and aseptic techniques as follows. For wound surgical procedure, a sterile biopsy punch (5-7 mm diameter) is used to punch through the full thickness of the back skin below the shoulder blades. Four 5-7 mm skin wounds are made on the back of each mouse. Wounds placed in this area cannot be reached by the animals and therefore are protected from self-licking. For implant surgery, a 4-mm long lateral skin incision is made on the upper back, and the skin is retracted. The space above the muscle is opened using blunt dissection with fine forceps, to create a rostral fascia indentation. Then, immunomodulators at indicated concentrations (in a 20 μL volume) or PBS control are injected into the fascia indentation.

Another experiment deals with leukocytes. Put plainly: Leukocyte migration (H&E staining) and activation (MPO ELISA) in normal wound. It is filed as in vivo, C57B mice. The conditions noted are these: compared to PBS, FIGS. 10A-10D. From the text:
FIGS. 10A-10D illustrate that immunomodulatory treatment enhances leukocyte migration and neutrophil activation in a normal wound. (10A, 10B—CCL3, 10C—LPS, fMLF, 10D—GM-CSF), N=4; Significance determined as compared to PBS *<0.05, **p<0.01, ***p<0.001.
We next examined the impact of CCL3 topical treatment on leukocyte migration by H&E staining, and on leukocyte activation by myeloperoxidase (MPO) measurements by ELISA. (MPO is primarily used as a marker for neutrophil activation but it can also be expressed to lesser extent in macrophages).

For a further experiment, the system named is MRSA. Briefly: Normal wound model of MRSA infection. It is filed as in vivo. As to conditions: FIG. 6B. How it is done:
as §3
(§4) Implant surgery and wound surgery and surgical site infection are performed according to the following method. On the day of surgery, all mice are anesthetized by an intraperitoneal injection of a ketamine/xylazine mixture (90 mg/kg ketamine+5 mg/kg xylazine for mice). The back of the animals is shaved using an electric shave and scrubbed with alcohol swabs 3 times, a topical antiseptic solution (Hibiclens; chlorhexidine gluconate) is applied to the skin. The surgical procedures are performed with sterile instruments, sterile surgical gloves, and aseptic techniques as follows. For wound surgical procedure, a sterile biopsy punch (5-7 mm diameter) is used to punch through the full thickness of the back skin below the shoulder blades. […]

Experiment [2] deals with P. aeruginosa PA103. Put plainly: Implant model of infection with PA103. Type of experiment: in vivo. The conditions noted are these: prophylaxis tobramycin 3.5 mg/kg i.p. 1 h before implantation and infection, FIG. 2A. As for the experimental part: as §1, §3
Implant surgery and wound surgery and surgical site infection are performed according to the following method. On the day of surgery, all mice are anesthetized by an intraperitoneal injection of a ketamine/xylazine mixture (90 mg/kg ketamine+5 mg/kg xylazine for mice). The back of the animals is shaved using an electric shave and scrubbed with alcohol swabs 3 times, a topical antiseptic solution (Hibiclens; chlorhexidine gluconate) is applied to the skin. The surgical procedures are performed with sterile instruments, sterile surgical gloves, and aseptic techniques as follows. […]

In a further experiment the test system is USA300 MRSA. Put plainly: Implant model of infection with USA300 MRSA. It is filed as in vivo. How it is done: as §1, §2, §3, §4

For the compound “Granulocyte-macrophage colony-stimulating factor [GM-CSF]”, the “PA103 infection in wounds as compared to PBS-treated wounds” value in the experiment on P. aeruginosa PA103 [1] (C57BL mice, 10^6 PA103, systemic 10 μg/kg i.p. 1 h prior to surgery, 24 h, FIG. 2B) is given as “significantly reduce”. In addition, the “reduction of PA103 infection in wounds, compared with CCL3 or tobramycin” value with P. aeruginosa PA103 [1] (systemic GM-CSF 10 μg/kg i.p., FIG. 2B) is listed as “not as effective”. Also, the “leukocyte migration and neutrophil activation in a normal wound” value in the experiment with leukocytes is reported as “enhances”.

On to “IL-1β: pro-inflammatory cytokine interleukin-1 (SEQ ID NO: 11, precursor)”, for which the “infection control against P. aeruginosa PA103 in normal wounds” value in the experiment with P. aeruginosa PA103 [1] (C57B mice, immunomodulator added locally at time of infection, compared to PBS, FIGS. 3A, 4A, 4B, 6A) is “effective”. Further, the “controlling MRSA infection in normal wound model” value in the experiment with MRSA is given as “effective”.

As for `NC[C@H]1O[C@H](O[C@H]2[C@H](O)[C@@H](O[C@H]3O[C@H](CO)[C@@H](O)[C@H](N)[C@H]3O)[C@H](N)C[C@@H]2N)[C@H](N)C[C@@H]1O` [tobramycin], the “bacterial loads on implants as compared to implants treated with immunomodulators” value in the experiment with P. aeruginosa PA103 [2] is reported as “significantly higher”. In addition, the “infection levels in wound tissues after prophylaxis antibiotic” value with P. aeruginosa PA103 [1] (C57BL/6 mice, 3.5 mg/kg i.p. 1 h before 10^6 CFU PA103, 24 h following infection, FIG. 15B) is on record as “effective”.

Take `CN[C@H](CC(C)C)C(=O)N[C@H]1C(=O)N[C@@H](CC(N)=O)C(=O)N[C@H]2C(=O)N[C@H]3C(=O)N[C@H](C(=O)N[C@H](C(=O)O)c4cc(O)cc(O)c4-c4cc3ccc4O)[C@H](O)c3ccc(c(Cl)c3)Oc3cc2cc(c3O[C@@H]2O[C@H](CO)[C@@H](O)[C@H](O)[C@H]2O[C@H]2C[C@](C)(N)[C@H](O)[C@H](C)O2)Oc2ccc(cc2Cl)[C@H]1O` [vancomycin]: in the experiment with USA300 MRSA (C57BL/6 mice, prophylaxis antibiotic i.p. 1 h before 10^6 CFU USA300, 24 h following infection, FIG. 15A), the “infection levels at implant surgical site (Tissue & Implant) or a distant site (Spleen)” value is recorded as “effective”. For the same compound, the “bacterial loads on implants as compared to implants treated with immunomodulators” value in the experiment with USA300 MRSA (prophylaxis vancomycin 40 mg/kg i.p., FIG. 15A & 2C) is recorded as “significantly higher”.
